Patent publication US10273453B2, “Method for stem cell differentiation in vivo by delivery of morphogenes with mesoporous silica and corresponding pharmaceutical active ingredients” (Nanologica AB, priority 2010, dated 2019)

Test system: bNCSCs
Assay: in vitro differentiation assay of bNCSCs
Type: cell-based, mouse
Settings: bNCSC cultures
Method: bNCSCs were isolated in a semiclonal fashion from EGFP embryos on embryonic day (E)11, as described previously (Hjerling-Leffler J, Marmigére F, Heglind M, et al. The boundary cap: a source of neural crest stem cells that generate multiple sensory neuron subtypes. Development 2005; 132:2623-32). Briefly, the DRGs along with boundary caps were mechanically separated from the isolated spinal cord and mechano-enzymatically dissociated using Collagenase/Dispase (1 mg/ml) and DNase (0.5 mg/ml) for 30 minutes at room temperature. Cells were plated at 0.5-1×10^5 cells/cm^2 in N2 medium containing B27 (Gibco, Grand Island, N.Y., www.invitrogen.com) as well as EGF and basic fibroblast growth factor (R&D Systems, Minneapolis, www.rndsystems.com; 20 ng/ml, respectively). […]
The AMS were added to the cultures and the time-window for their presence before dissolving in the culture medium was established. We also analyzed their contact with the stem cells. […] After staining 10 photographs were taken from each slide and the ratios of neurons and glial cells were calculated in all types of experiments. We also calculated the neurite length per cell as a measure of the level of neuronal differentiation (Kozlova E N. Differentiation and migration of astrocytes in the spinal cord following dorsal root injury in the adult rat. Eur J Neurosci 2003; 17:782-90).

CC1=C(/C=C/C(C)=C/C=C/C(C)=C/C(=O)O)C(C)(C)CCC1 [RA, retinoic acid]
differentiation of neurons based on neurite lengths, increase compared to non-treated neurospheres: up to 37%
neuron/glia ratio, increase compared to neurospheres-alone: 3.4 times
